Measurements taken from patent US20060069132A1, “Azolecarboxamide herbicides” (priority 2004, published 2006).

What was measured:
barnyardgrass [1] = assay: Test B pre-/postemergence herbicide test; type: in vivo, Echinochloa crus-galli; conditions: for Barnyardgrass plant response rating: postemergence, visual rating
Procedure, shortened: (§1)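 Formulation: non-phytotoxic solvent mix with surfactant. Timing: preemergence on seed and postemergence on 2–18 cm plants, applied concurrently. Readout after 13–15 d greenhouse: visual 0–100 control rating against controls.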

Surinam grass = assay: Test B pre-/postemergence herbicide test; type: in vivo, Urochloa decumbens; conditions: for Surinam Grass plant response rating: postemergence, visual rating
Procedure, shortened: as §1

cocklebur = assay: Test B pre-/postemergence herbicide test; type: in vivo, Xanthium strumarium; conditions: for Cocklebur plant response rating: postemergence, visual rating
Procedure, shortened: as §1

corn = assay: Test B pre-/postemergence herbicide test; type: in vivo, Zea mays; conditions: for Corn plant response rating: postemergence, visual rating
Procedure, shortened: as §1

large crabgrass = assay: Test B pre-/postemergence herbicide test; type: in vivo, Digitaria sanguinalis; conditions: for Crabgrass, Large plant response rating: postemergence, visual rating
Procedure, shortened: as §1

giant foxtail = assay: Test B pre-/postemergence herbicide test; type: in vivo, Setaria faberi; conditions: for Foxtail, Giant plant response rating: postemergence, visual rating
Procedure, shortened: as §1

lambsquarters = assay: Test B pre-/postemergence herbicide test; type: in vivo, Chenopodium album; conditions: for Lambsquarters plant response rating: postemergence, visual rating
Procedure, shortened: as §1

morningglory = assay: Test B pre-/postemergence herbicide test; type: in vivo, Ipomoea coccinea; conditions: for Morningglory plant response rating: postemergence, visual rating
Procedure, shortened: as §1

pigweed = assay: Test B pre-/postemergence herbicide test; type: in vivo, Amaranthus retroflexus; conditions: for Pigweed plant response rating: postemergence, visual rating
Procedure, shortened: as §1

blackgrass = assay: Test B postemergence herbicide test; type: in vivo, Alopecurus myosuroides; conditions: scale 0 (no effect) to 100 (complete control); for Blackgrass plant response rating: postemergence, visual rating
Procedure, shortened: (§2)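 Scale 0–100: zero equals no visible effect, 100 complete control, judged by eye relative to controls. Timing: 13 to 15 days in greenhouse post-treatment. Growth stage at spraying: two leaves (paddy) or one to four leaves, 2–18 cm (postemergence).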

wheat = assay: Test B postemergence herbicide test; type: in vivo, Triticum aestivum; set-up: key to Wheat plant response rating: 0 = no effect, 100 = complete control; conditions: scale 0 (no effect) to 100 (complete control); for Wheat plant response rating: postemergence, visual rating
Procedure, shortened: (§3)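 Each value is a visual 0–100 response rating taken against controls 13 to 15 days after treatment in the greenhouse. Plants received formulated chemical postemergence at the 1- to 4-leaf stage or, in flooded paddy, at the 2-leaf stage.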

wild oat = assay: Test B postemergence herbicide test; type: in vivo, Avena fatua; conditions: scale 0 (no effect) to 100 (complete control); for Oat, Wild plant response rating: postemergence, visual rating
Procedure, shortened: as §3

rice = assay: Test B flooded paddy test; type: in vivo, Oryza sativa; conditions: 1000 g ai/ha, visual rating, scale 0 to 100 (0 no effect, 100 complete control), 13 to 15 days
Procedure, shortened: as §2

[2] = tested on: small flower umbrella sedge; assay: Test B flooded paddy test; type: in vivo, Cyperus difformis; conditions: 1000 g ai/ha, visual rating, scale 0 to 100 (0 no effect, 100 complete control), 13 to 15 days
Procedure, shortened: as §2

ducksalad = assay: Test B flooded paddy test; type: in vivo, Heteranthera limosa; conditions: 1000 g ai/ha, visual rating, scale 0 to 100 (0 no effect, 100 complete control), 13 to 15 days
Procedure, shortened: as §2

barnyardgrass [3] = assay: Test B flooded paddy test; type: in vivo, Echinochloa crus-galli; conditions: 1000 g ai/ha, visual rating, scale 0 to 100 (0 no effect, 100 complete control), 13 to 15 days
Procedure, shortened: as §2

[4] = 125 g ai/ha, 0 = no effect, 100 = complete control, preemergence
[5] = 500 g ai/ha, visual rating 0-100, 0 no effect, 100 complete control, preemergence
[6] = 125 g ai/ha, scale 0 (no effect) to 100 (complete control)
[7] = 500 g ai/ha, scale 0 (no effect) to 100 (complete control)
[8] = preemergence, 125 g ai/ha, 0 to 100 scale, 0 is no effect, 100 is complete control
[9] = Postemergence, 500 g ai/ha, visual rating after 13 to 15 days, scale 0 (no effect) to 100 (complete control)
[10] = Postemergence, 500 g ai/ha, visual rating after 13 to 15 days

CCNC(=O)c1cccc(NC(=O)c2sc(C(C)(C)C)nc2CC)c1 [Compound 210]
Barnyardgrass plant response rating (0 to 100 scale) (barnyardgrass [1]; [4]): 70 | Plant response rating, Barnyardgrass (barnyardgrass [1]; [5]): 90 | Barnyardgrass plant response rating (barnyardgrass [1]; [6]): 20 | Barnyardgrass plant response rating (barnyardgrass [1]; [7]): 40 | Surinam Grass plant response rating (0 to 100 scale) (Surinam grass; [4]): 60 | Plant response rating, Surinam Grass (Surinam grass; [5]): 70 | Surinam Grass plant response rating (Surinam grass; [6]): 20 | Surinam Grass plant response rating (Surinam grass; [7]): 30 | Cocklebur plant response rating (0 to 100 scale) (cocklebur; [4]): 10 | Plant response rating, Cocklebur (cocklebur; [5]): 40 | Cocklebur plant response rating (cocklebur; [6]): 60 | Cocklebur plant response rating (cocklebur; [7]): 90 | Corn plant response rating (0 to 100 scale) (corn; [4]): 20 | Plant response rating, Corn (corn; [5]): 70 | Corn plant response rating (corn; [6]): 20 | Corn plant response rating (corn; [7]): 60 | Crabgrass, Large plant response rating (0 to 100 scale) (large crabgrass; [4]): 90 | Plant response rating, Crabgrass, Large (large crabgrass; [5]): 90 | Crabgrass, Large plant response rating (large crabgrass; [6]): 20 | Crabgrass, Large plant response rating (large crabgrass; [7]): 20 | Foxtail, Giant plant response rating (0 to 100 scale) (giant foxtail; [4]): 80 | Plant response rating, Foxtail, Giant (giant foxtail; [5]): 100 | Foxtail, Giant plant response rating (giant foxtail; [6]): 20 | Foxtail, Giant plant response rating (giant foxtail; [7]): 30 | Lambsquarters plant response rating (0 to 100 scale) (lambsquarters; [4]): 100 | Plant response rating, Lambsquarters (lambsquarters; [5]): 100 | Lambsquarters plant response rating (lambsquarters; [6]): 70 | Lambsquarters plant response rating (lambsquarters; [7]): 80 | Morningglory plant response rating (0 to 100 scale) (morningglory; [4]): 20 | Plant response rating, Morningglory (morningglory; [5]): 30 | Morningglory plant response rating (morningglory; [6]): 30 | Morningglory plant response rating (morningglory; [7]): 70 | Pigweed plant response rating (0 to 100 scale) (pigweed; [4]): 100 | Plant response rating, Pigweed (pigweed; [5]): 100 | Pigweed plant response rating (pigweed; [6]): 40 | Pigweed plant response rating (pigweed; [7]): 70 | Blackgrass plant response rating (blackgrass; 125 g ai/ha): 10 | Blackgrass plant response rating (blackgrass; 500 g ai/ha): 30 | Wheat plant response rating (wheat; 125 g ai/ha): 20 | Wheat plant response rating (wheat; 500 g ai/ha): 20 | Oat, Wild plant response rating (wild oat; 125 g ai/ha): 20 | Oat, Wild plant response rating (wild oat; 500 g ai/ha): 20 | Rice plant response rating (rice): 70 | Sedge, Umbrella plant response rating [2]: 80 | Ducksalad plant response rating (ducksalad): 80 | Barnyardgrass plant response rating (barnyardgrass [3]): 80

C=Cn1nc(C(C)(C)C)cc1C(=O)Nc1cccc(C(C)=O)c1 [Compound 127]
Plant response rating, Barnyardgrass (barnyardgrass [1]; [5]): 70 | Barnyardgrass plant response rating (barnyardgrass [1]; [6]): 10 | Barnyardgrass plant response rating (barnyardgrass [1]; [7]): 20 | Plant response rating, Barnyardgrass (barnyardgrass [1]; [8]): 20 | Plant response rating, Surinam Grass (Surinam grass; [5]): 60 | Surinam Grass plant response rating (Surinam grass; [6]): 10 | Surinam Grass plant response rating (Surinam grass; [7]): 10 | Plant response rating, Surinam Grass (Surinam grass; [8]): 50 | Plant response rating, Cocklebur (cocklebur; [5]): 20 | Cocklebur plant response rating (cocklebur; [6]): 10 | Cocklebur plant response rating (cocklebur; [7]): 80 | Plant response rating, Cocklebur (cocklebur; [8]): 10 | Plant response rating, Corn (corn; [5]): 0 | Plant response rating, Corn (corn; [8]): 0 | Plant response rating, Crabgrass, Large (large crabgrass; [5]): 100 | Crabgrass, Large plant response rating (large crabgrass; [6]): 20 | Crabgrass, Large plant response rating (large crabgrass; [7]): 30 | Plant response rating, Crabgrass, Large (large crabgrass; [8]): 90 | Plant response rating, Foxtail, Giant (giant foxtail; [5]): 70 | Foxtail, Giant plant response rating (giant foxtail; [6]): 20 | Foxtail, Giant plant response rating (giant foxtail; [7]): 30 | Plant response rating, Foxtail, Giant (giant foxtail; [8]): 30 | Plant response rating, Lambsquarters (lambsquarters; [5]): 70 | Lambsquarters plant response rating (lambsquarters; [6]): 70 | Lambsquarters plant response rating (lambsquarters; [7]): 80 | Plant response rating, Lambsquarters (lambsquarters; [8]): 0 | Plant response rating, Morningglory (morningglory; [8]): 0 | Plant response rating, Pigweed (pigweed; [5]): 70 | Pigweed plant response rating (pigweed; [6]): 30 | Pigweed plant response rating (pigweed; [7]): 60 | Plant response rating, Pigweed (pigweed; [8]): 40 | Blackgrass plant response rating (blackgrass; 125 g ai/ha): 10 | Blackgrass plant response rating (blackgrass; 500 g ai/ha): 10 | Wheat plant response rating (wheat; 125 g ai/ha): 0 | Wheat plant response rating (wheat; 500 g ai/ha): 10 | Oat, Wild plant response rating (wild oat; 125 g ai/ha): 10 | Oat, Wild plant response rating (wild oat; 500 g ai/ha): 10 | Rice plant response rating (rice): 50 | Sedge, Umbrella plant response rating [2]: 100 | Ducksalad plant response rating (ducksalad): 90 | Barnyardgrass plant response rating (barnyardgrass [3]): 50

CCOC(=O)c1cc(NC(=O)c2cc(C(C)(C)C)nn2CC)ccc1OC [Compound 96]
Plant response rating, Barnyardgrass (barnyardgrass [1]; [5]): 90 | Plant response rating, Barnyardgrass (barnyardgrass [1]; [9]): 50 | Barnyardgrass plant response rating (barnyardgrass [1]; [6]): 0 | Plant response rating, Barnyardgrass (barnyardgrass [1]; [8]): 70 | Plant response rating, Surinam Grass (Surinam grass; [5]): 80 | Plant response rating, Surinam Grass (Surinam grass; [9]): 30 | Surinam Grass plant response rating (Surinam grass; [6]): 20 | Plant response rating, Surinam Grass (Surinam grass; [8]): 20 | Plant response rating, Cocklebur (cocklebur; [5]): 0 | Plant response rating, Cocklebur (cocklebur; [9]): 100 | Cocklebur plant response rating (cocklebur; [6]): 90 | Plant response rating, Cocklebur (cocklebur; [8]): 0 | Plant response rating, Corn (corn; [5]): 70 | Plant response rating, Corn (corn; [9]): 20 | Corn plant response rating (corn; [6]): 10 | Plant response rating, Corn (corn; [8]): 40 | Plant response rating, Crabgrass, Large (large crabgrass; [5]): 100 | Plant response rating, Crabgrass, Large (large crabgrass; [9]): 50 | Crabgrass, Large plant response rating (large crabgrass; [6]): 40 | Plant response rating, Crabgrass, Large (large crabgrass; [8]): 20 | Plant response rating, Foxtail, Giant (giant foxtail; [5]): 90 | Plant response rating, Foxtail, Giant (giant foxtail; [9]): 50 | Foxtail, Giant plant response rating (giant foxtail; [6]): 30 | Plant response rating, Foxtail, Giant (giant foxtail; [8]): 60 | Plant response rating, Lambsquarters (lambsquarters; [5]): 100 | Plant response rating, Lambsquarters (lambsquarters; [9]): 100 | Lambsquarters plant response rating (lambsquarters; [6]): 100 | Plant response rating, Lambsquarters (lambsquarters; [8]): 100 | Plant response rating, Morningglory (morningglory; [5]): 10 | Plant response rating, Morningglory (morningglory; [9]): 0 | Morningglory plant response rating (morningglory; [6]): 0 | Plant response rating, Morningglory (morningglory; [8]): 0 | Plant response rating, Pigweed (pigweed; [5]): 100 | Plant response rating, Pigweed (pigweed; [9]): 100 | Pigweed plant response rating (pigweed; [6]): 70 | Plant response rating, Pigweed (pigweed; [8]): 100 | Plant response rating, Blackgrass (blackgrass; [10]): 20 | Blackgrass plant response rating (blackgrass; 125 g ai/ha): 0 | Plant response rating, Wheat (wheat; [10]): 20 | Wheat plant response rating (wheat; 125 g ai/ha): 10 | Plant response rating, Oat, Wild (wild oat; [10]): 20 | Oat, Wild plant response rating (wild oat; 125 g ai/ha): 20 | Rice plant response rating (rice): 70 | Sedge, Umbrella plant response rating [2]: 90 | Ducksalad plant response rating (ducksalad): 90 | Barnyardgrass plant response rating (barnyardgrass [3]): 80
